Measured values taken from US20250152616A1, “COMPOSITIONS FOR AND METHODS OF TREATING, PREVENTING, AND/OR MITIGATING PAIN” (Duke University, priority 2022, published 2025).

Test system: mouse model of stabilized unilateral tibial fracture
Experiment: Open field activity after tibial fracture
Type: in vivo
Experimental: The aim of the experiments described herein was to examine the effectiveness of local delivery of adenosine in tibial bone injury to concurrently attenuate fracture/post-surgical pain while promoting healing. All animal work was performed in compliance with the National Institutes of Health (NIH) and institutional guidelines, and the fracture surgery and biomaterial implantation protocols approved by the Institutional Animal Care and Use Committee at Duke University (Protocol Registry Number A151-20-07) were followed. C57BL/6J mice were used to study fracture nociception and the effect of local delivery of adenosine to mitigate pain and promote bone regeneration. Lepr-cre; tdTomato reporter mice were used for tracing of LepR(+) lineage cells after fracture. To determine the effect of adenosine on pain and healing, fracture surgeries were performed and treated immediately with PEGDA-6ACA-PBA macroporous hydrogels loaded with adenosine as treatment group or without adenosine as control group (Zeng Y, et al. (2020) Adv Mater. 32:e1906022). Behavioral tests for pain and limb function were assessed by weight bearing and open field locomotion. A priori power analysis was used to estimate the sample size requiring a statistical power (1−β) of 80% at the significance level of α=5%. On the basis of the power calculation, the indicated number was 8 animals per group for fracture pain and 4 animals per group for fracture healing. Ten animals per group were used to study the effect of adenosine on fracture pain, and 5 animals per group were used to examine the effect of adenosine on fracture healing. The exclusion criteria for experiments were animals that died due to the surgical procedures or shift of the intramedullary pin identified after experimental endpoint post-mortem. No randomization was used and researchers were not blinded. Measurement of adenosine in the circulation was performed by using an adenosine assay. The in vitro functional activity of DRG neurons was assessed by calcium and membrane potential imaging and the expression of proteins were assessed by histology or immunofluorescence imaging, and gene expression by RT-qPCR. Fracture healing was analyzed by microCT and histology. The study design and timeline of animal procedures (pin placement, surgery, therapeutic intervention with and without adenosine, and behavioral tests) are illustrated in FIG. 10A (weight bearing) and FIG. 10A (open field locomotion).
In all experiments, 12-week-old to 16-week-old C57BL/6J male mice (Jackson Laboratory, Bar Harbor, ME) and Lepr-cre; tdTomato reporter mice were used. The average mouse weight was 25 grams and mice were housed in groups of four to five, and kept on a 12-hr light-dark cycle with lights off at 1800 hr. All animals had ad libitum access to chow (PMI LabDiet 5001) and water. Fracture surgeries were performed as previously described (Zeng Y, et al. (2020) Adv Mater. 32:e1906022). Animals were anesthetized by isoflurane and injected with 1 mg/kg buprenorphine SR-LAB (ZooPharm, Laramie, WY). Each mouse was then placed in a supine position with the right tibia disinfected. After skin incision and reflection, proximal to the right knee, a 0.7-mm pin was inserted from the tibial plateau through the medullary cavity to stabilize the tibia, and a cut was made at the tibial midshaft to induce a transverse fracture. Bupivacaine (0.5%; Hospira, Lake Forest, IL) at ˜1 mg/kg body weight was applied at the surgical site following wound closure using 2 reflex clips (5 mm). For animals treated with control and adenosine-loaded macroporous hydrogels, macroporous hydrogels measuring approximately 5 mm (length)×3 mm (width)×1 mm (thick) containing either 1.05±0.1 mg adenosine (ADO) or no adenosine (CTL) were implanted adjacent to the fractures immediately. […] The animals were treated with the macroporous hydrogels with or without adenosine immediately following the fracture. […]

[1] = 7 dpf, sum over 60 min, ratio post-/pre-fracture

For Nc1ncnc2c1ncn2[C@@H]1O[C@H](CO)[C@@H](O)[C@H]1O [adenosine], the “effect size of treatment on open field parameters” value (7 dpf, effect size r and Cohen's d, all measured parameters) was “large effect sizes”, the “ambulatory activity counts vs control” value [1] was “significantly higher” and the “ambulatory time vs control” value [1] was “significantly higher”. For the same compound, the “rest time vs control” value [1] was “lower”, the “total distance vs control” value [1] was “significantly higher” and the “vertical activity counts vs control” value [1] was “significantly higher”. The “vertical movement time vs control” value [1] was “significantly higher” and the “open field activity vs control at 5-min intervals (vertical, ambulatory, distance; lower rest time)” value (7 days post-fracture, most of the 5-min intervals, ratio post-/pre-fracture) was “higher levels of activity”.
